According to ChEMBL document CHEMBL1148194, “Dysinosins B-D, inhibitors of factor VIIa and thrombin from the Australian sponge Lamellodysidea chlorea” (J Nat Prod, 2004):

Tests used:
Prothrombin = Prothrombin (Homo sapiens, UniProt P00734); assay: Inhibition of thrombin by spectrophotometric assay
Coagulation factor VII = target: T1, Coagulation factor VII (Homo sapiens, UniProt P08709); assay: Inhibition of factor 7a by spectrophotometric assay
T1 sequence (P08709 whole entry): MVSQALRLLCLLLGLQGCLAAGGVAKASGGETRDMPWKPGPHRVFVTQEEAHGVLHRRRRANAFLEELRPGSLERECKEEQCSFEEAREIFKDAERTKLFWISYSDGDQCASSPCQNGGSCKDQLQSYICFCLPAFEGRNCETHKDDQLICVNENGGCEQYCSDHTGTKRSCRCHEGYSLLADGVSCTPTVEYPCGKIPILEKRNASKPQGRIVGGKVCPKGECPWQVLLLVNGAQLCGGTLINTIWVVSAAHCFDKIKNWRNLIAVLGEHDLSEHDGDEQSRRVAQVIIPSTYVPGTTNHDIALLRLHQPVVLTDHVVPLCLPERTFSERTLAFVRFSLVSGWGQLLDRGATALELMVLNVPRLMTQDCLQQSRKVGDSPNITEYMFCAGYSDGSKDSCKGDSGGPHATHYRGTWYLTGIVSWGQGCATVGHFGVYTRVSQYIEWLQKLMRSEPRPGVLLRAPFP

**Q.** For `CO[C@H](CO)C(=O)N[C@H](C(=O)N1[C@H](C(=O)NCCC2=CC[N+](=C(N)N)C2)C[C@@H]2C[C@H](O)[C@@H](O)C[C@@H]21)C(C)C` [DYSINOSIN D], which Ki (Prothrombin) is on record?
**A.** The Ki was greater than 5100 nM.

**Q.** What about the Ki (Coagulation factor VII) of the same molecule?
**A.** The Ki was 1320 nM.

**Q.** How did the Ki (Prothrombin) turn out when `CO[C@H](COS(=O)(=O)[O-])C(=O)N[C@H](CC(C)C)C(=O)N1[C@H](C(=O)NCCC2=CC[N+](=C(N)N)C2)C[C@@H]2C[C@H](O)[C@@H](O)C[C@@H]21` [DYSINOSIN A] was run?
**A.** The Ki was 452 nM.

**Q.** And the Ki (Coagulation factor VII)?
**A.** Its Ki is 108 nM.

**Q.** For `CO[C@H](COS(=O)(=O)[O-])C(=O)N[C@H](C(=O)N1[C@H](C(=O)NCCC2=CC[N+](=C(N)N)C2)C[C@@H]2C[C@H](O)[C@@H](O)C[C@@H]21)C(C)C` [DYSINOSIN C], which Ki (Prothrombin) is on record?
**A.** The Ki was 550 nM.

**Q.** What about the Ki (Coagulation factor VII) of the same molecule?
**A.** The Ki was 124 nM.

**Q.** How did the Ki (Prothrombin) turn out when `CO[C@H](COS(=O)(=O)[O-])C(=O)N[C@H](C(=O)N1[C@H](C(=O)NCCC2=CC[N+](=C(N)N)C2)C[C@@H]2C[C@H](O)[C@@H](O[C@H]3O[C@H](CO)[C@@H](O)[C@H](O)[C@H]3O)C[C@@H]21)C(C)C` [DYSINOSIN B] was run?
**A.** The Ki was 170 nM.

**Q.** What about the Ki (Coagulation factor VII) of the same molecule?
**A.** The Ki was 90 nM.
